Reference: patent publication US12264158B2, “Protein kinase MKK4 inhibitors for promoting liver regeneration or reducing or preventing hepatocyte death” (HEPAREGENIX GMBH, priority 2018, dated 2025)

Experiments:
JNK1 = molecular target: T1, JNK1 (Homo sapiens, UniProt P45983); test: KINOMEscan competition binding assay, selectivity against off-target JNK1; settings: concentration of 100 nM
T1 construct: M1/Q384; host or cells: HEK-293
Outline: (§1)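 DNA-tagged kinases expressed in HEK-293 cells compete between test compound and immobilized ligand on blocked beads. Bound kinase is eluted and quantified by qPCR of the DNA tag. Compounds were tested at the indicated final concentrations, prepared from 10 mM stocks.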

MKK4 active = molecular target: T2, MKK4 active (Homo sapiens, UniProt P45985); test: Radiometric protein kinase assay, MKK4 active; assay type: biochemical; settings: substrate JNK1 KRKR, ATP 0.2 μM, read-out: MKK4, potency derived from IC50-values
T2 construct: purchased ProQinase #0948-0000-1
T2 sequence (P45985 1-399): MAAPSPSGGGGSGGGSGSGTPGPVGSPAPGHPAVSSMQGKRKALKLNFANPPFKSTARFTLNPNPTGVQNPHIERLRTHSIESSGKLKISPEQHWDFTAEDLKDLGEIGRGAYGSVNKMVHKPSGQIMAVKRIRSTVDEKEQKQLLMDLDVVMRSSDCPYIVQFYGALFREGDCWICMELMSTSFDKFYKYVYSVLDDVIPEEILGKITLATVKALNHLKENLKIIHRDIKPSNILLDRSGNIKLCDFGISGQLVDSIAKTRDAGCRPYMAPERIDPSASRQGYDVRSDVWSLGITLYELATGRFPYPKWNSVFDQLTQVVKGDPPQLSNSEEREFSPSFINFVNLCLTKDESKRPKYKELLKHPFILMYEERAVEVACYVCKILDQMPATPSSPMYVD
Outline: (§2)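 Kinase activity measured radiometrically: stopped reactions were captured on filter plates, washed with 150 mM H3PO4 and ethanol, and incorporated radioactivity counted by liquid scintillation.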

BRaf = BRaf (Homo sapiens, UniProt P15056); test: KINOMEscan competition binding assay, selectivity against off-target BRaf; settings: concentration of 100 nM
Outline: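 Competition binding: test compound competes with an immobilized ligand for DNA-tagged BRaf, and kinase captured on the ligand is quantified by qPCR of the DNA tag. Compounds from 10 mM stocks were tested at the indicated final concentrations.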

MEKK2 = molecular target: T3, MEKK2 (Homo sapiens, UniProt Q9Y2U5); test: Radiometric protein kinase assay, MEKK2; assay type: biochemical; settings: substrate Casein, ATP 0.2 μM; read-out: MEKK2, potency derived from IC50-values
T3 construct: purchased ProQinase #0583-0000-1
T3 sequence (Q9Y2U5 1-619): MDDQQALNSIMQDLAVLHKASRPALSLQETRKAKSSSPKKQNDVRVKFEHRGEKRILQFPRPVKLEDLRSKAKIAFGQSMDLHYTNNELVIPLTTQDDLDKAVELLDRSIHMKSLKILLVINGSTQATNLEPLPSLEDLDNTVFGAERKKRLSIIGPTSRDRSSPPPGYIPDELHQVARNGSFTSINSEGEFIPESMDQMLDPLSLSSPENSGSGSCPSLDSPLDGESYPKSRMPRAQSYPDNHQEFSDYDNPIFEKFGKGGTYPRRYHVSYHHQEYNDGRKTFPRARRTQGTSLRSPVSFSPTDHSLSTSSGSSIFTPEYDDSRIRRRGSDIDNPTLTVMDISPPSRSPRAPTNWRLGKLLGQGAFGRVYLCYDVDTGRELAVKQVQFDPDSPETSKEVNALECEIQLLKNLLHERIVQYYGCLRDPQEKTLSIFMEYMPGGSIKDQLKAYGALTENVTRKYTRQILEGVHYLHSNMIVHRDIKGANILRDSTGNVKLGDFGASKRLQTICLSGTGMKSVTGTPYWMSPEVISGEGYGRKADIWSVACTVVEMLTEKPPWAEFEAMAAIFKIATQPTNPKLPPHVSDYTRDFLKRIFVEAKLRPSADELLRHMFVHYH
Outline: as §2

MKK4-MEKK2 mix = molecular target: T4, MKK4-MEKK2 mix (Homo sapiens, UniProt P45985); test: Radiometric protein kinase assay, MEKK2 dependent MKK4 activation (cascade); assay type: biochemical; settings: substrate JNK1 KRKR, ATP 0.2 μM, read-out: Cascade, potency derived from IC50-values
T4 construct: MEKK2, recombinant, active: ProQinase product #0583-0000-1
T4 sequence (P45985 2-399): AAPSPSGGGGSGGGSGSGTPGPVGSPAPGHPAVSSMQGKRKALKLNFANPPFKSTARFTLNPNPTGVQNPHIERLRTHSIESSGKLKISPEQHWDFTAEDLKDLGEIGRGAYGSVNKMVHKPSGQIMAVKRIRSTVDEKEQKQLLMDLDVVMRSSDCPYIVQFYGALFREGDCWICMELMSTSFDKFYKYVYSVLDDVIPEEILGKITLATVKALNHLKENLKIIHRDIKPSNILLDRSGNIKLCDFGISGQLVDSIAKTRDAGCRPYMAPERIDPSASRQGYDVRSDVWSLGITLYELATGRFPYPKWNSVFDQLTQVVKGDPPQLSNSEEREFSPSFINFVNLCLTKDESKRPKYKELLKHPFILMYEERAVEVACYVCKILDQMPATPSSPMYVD
Protocol: The activation step is done in 50 mM HEPES pH 7.5, 50 mM NaCl, 3.8 mM MgCl2, 2.5 mM DTT, 10% (v/v) glycerol. Final DMSO concentration is 1%. The activation mixture is pipetted in the following order • 2.5 μl compound in 4% DMSO • 2.5 μl ATP/MgCl2 mix • 5 μl premixed kinase solution MKK4:MEKK2 10:1 (w/w)
Protein concentrations in the activation mix are 1 μM MKK4 and 50 nM MEKK2.
A radiometric protein kinase assay was used for measuring the kinase activity of the respective protein kinases. All kinase assays were performed in 96-well polypropylene plates. After the reactions were stopped, the assay mixtures were transferred to 96-well MSFC filter-plates (Millipore). The reaction mix was passed through the filter membrane by aspiration, the membrane was washed 3 times with 150 mM H3PO4, once with ethanol, dried and liquid scintillation cocktail was added. Radioactivity was determined by counting of the samples in a Microbeta multiwell scintillation counter (Wallac).

MKK7 = molecular target: T5, MKK7 (Homo sapiens, UniProt O14733); test: KINOMEscan competition binding assay, selectivity against off-target MKK7; settings: concentration of 100 nM
T5 construct: M1/R419; host or cells: HEK-293
T5 sequence (O14733 1-419): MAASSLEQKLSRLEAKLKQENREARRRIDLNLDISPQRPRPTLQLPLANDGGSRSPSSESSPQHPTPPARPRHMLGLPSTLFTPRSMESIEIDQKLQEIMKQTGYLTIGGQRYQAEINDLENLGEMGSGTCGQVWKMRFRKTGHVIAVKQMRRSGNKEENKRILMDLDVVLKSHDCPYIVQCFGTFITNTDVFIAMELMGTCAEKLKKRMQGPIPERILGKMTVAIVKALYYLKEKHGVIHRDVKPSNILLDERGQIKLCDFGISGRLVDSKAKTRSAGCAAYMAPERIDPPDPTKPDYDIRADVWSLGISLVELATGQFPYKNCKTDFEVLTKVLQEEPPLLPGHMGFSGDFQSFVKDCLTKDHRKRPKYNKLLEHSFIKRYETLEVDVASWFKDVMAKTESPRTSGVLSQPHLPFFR
Outline: as §1

MKK4 = molecular target: T6, MKK4 (Homo sapiens, UniProt P45985); test: KINOMEscan competition binding assay, MKK4 potency; settings: concentration of 100 nM
T6 construct: S84/D399; host or cells: HEK-293
T6 sequence (P45985 84-399): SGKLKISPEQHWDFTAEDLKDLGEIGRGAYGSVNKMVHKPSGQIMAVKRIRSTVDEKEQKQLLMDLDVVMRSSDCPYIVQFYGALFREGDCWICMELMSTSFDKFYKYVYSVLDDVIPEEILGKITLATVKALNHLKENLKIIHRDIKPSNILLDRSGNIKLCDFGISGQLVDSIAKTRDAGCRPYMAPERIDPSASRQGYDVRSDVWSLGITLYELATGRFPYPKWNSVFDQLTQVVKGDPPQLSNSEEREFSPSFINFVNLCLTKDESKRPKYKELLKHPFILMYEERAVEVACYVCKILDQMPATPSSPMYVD
Outline: as §1

T1 sequence (P45983 1-384 isoform P45983-2): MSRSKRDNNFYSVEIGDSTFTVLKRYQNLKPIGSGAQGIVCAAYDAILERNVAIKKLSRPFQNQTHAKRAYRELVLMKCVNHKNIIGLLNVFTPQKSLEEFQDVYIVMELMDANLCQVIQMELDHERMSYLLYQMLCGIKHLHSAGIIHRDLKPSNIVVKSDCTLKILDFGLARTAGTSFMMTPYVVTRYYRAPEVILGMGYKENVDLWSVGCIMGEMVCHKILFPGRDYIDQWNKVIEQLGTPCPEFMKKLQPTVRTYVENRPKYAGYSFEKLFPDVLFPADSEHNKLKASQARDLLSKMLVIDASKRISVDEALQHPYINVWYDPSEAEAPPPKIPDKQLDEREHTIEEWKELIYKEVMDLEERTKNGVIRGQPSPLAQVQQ
Sequence of BRaf (P15056 whole entry): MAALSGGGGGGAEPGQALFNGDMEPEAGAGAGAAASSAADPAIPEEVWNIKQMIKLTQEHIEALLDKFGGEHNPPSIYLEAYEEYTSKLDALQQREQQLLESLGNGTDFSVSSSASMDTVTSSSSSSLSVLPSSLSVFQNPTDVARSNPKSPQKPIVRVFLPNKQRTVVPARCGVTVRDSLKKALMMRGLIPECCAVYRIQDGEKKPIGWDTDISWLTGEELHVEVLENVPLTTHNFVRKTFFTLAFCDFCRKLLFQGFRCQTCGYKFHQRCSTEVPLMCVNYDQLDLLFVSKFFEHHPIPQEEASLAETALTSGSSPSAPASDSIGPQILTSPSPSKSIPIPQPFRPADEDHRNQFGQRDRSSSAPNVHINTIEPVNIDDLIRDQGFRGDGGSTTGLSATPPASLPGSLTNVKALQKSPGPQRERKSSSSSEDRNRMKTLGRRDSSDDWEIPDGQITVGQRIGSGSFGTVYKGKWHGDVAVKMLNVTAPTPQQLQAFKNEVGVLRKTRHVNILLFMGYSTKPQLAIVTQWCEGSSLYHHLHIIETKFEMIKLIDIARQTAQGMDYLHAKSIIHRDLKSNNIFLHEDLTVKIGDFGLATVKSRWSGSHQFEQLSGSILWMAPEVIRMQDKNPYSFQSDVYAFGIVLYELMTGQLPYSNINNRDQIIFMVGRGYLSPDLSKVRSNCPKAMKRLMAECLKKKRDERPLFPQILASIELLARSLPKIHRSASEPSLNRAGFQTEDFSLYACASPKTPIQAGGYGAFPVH

Row | Selectivity vs. JNK1, ratio PoC(JNK1)/PoC(MKK4) (JNK1) | IC50 (MKK4 active) | Selectivity vs. BRaf, ratio PoC(BRaf)/PoC(MKK4) (BRaf) | IC50 (MEKK2) | IC50 (MKK4-MEKK2 mix) | Selectivity vs. MKK7, ratio PoC(MKK7)/PoC(MKK4) (MKK7) | MKK4, residual percent of control binding (PoC) (MKK4) | Compound
1 | + (10 > PoC(JNK1)/PoC(MKK4) ≥ 3) | 500 to 1000 nM | + (10 > PoC(BRaf)/PoC(MKK4) ≥ 3) | 1000 to 10000 nM | 1000 to 10000 nM | ++ (30 > PoC(MKK7)/PoC(MKK4) ≥ 10) | ++ (1 ≤ PoC < 10) | CCCS(=O)(=O)Nc1ccc(F)c(C(=O)c2n[nH]c3ncc(-c4ccccc4O)cc23)c1F [Example 21, N-(2,4-difluoro-3-(5-(2-hydroxyphenyl)-1H-pyrazo-lo[3,4-b]pyridine-3-carbonyl)-phenyl)propane-1-sulfon-amide]
2 | ++ (30 > PoC(JNK1)/PoC(MKK4) ≥ 10) | 500 to 1000 nM | + (10 > PoC(BRaf)/PoC(MKK4) ≥ 3) | 1000 to 10000 nM | 1000 to 10000 nM | ++ (30 > PoC(MKK7)/PoC(MKK4) ≥ 10) | ++ (1 ≤ PoC < 10) | CCCS(=O)(=O)Nc1ccc(F)c(C(=O)c2n[nH]c3ncc(-c4ccccc4Cl)cc23)c1F [Example 9, N-(3-(5-(2-chlorophenyl)-1H-pyrazolo[3,4-b]pyridine-3-carbonyl)-2,4-difluorophenyl)-propane-1-sulfonamide]
3 | +++ (PoC(JNK1)/PoC(MKK4) ≥ 30) | 1000 to 10000 nM | O (PoC(BRaf)/PoC(MKK4) < 3) | > 10000 nM | > 10000 nM | +++ (PoC(MKK7)/PoC(MKK4) ≥ 30) | ++ (1 ≤ PoC < 10) | CCCS(=O)(=O)Nc1ccc(F)c(C(=O)c2n[nH]c3ncc(-c4ccc(N(C)C)cc4)cc23)c1F [Example 8, N-(3-(5-(4-(dimethylamino)-phenyl)-1H-pyrazolo[3,4-b]pyridine-3-carbonyl)-2,4-difluorophenyl)-propane-1-sulfonamide]
4 | ++ (30 > PoC(JNK1)/PoC(MKK4) ≥ 10) | < 500 nM | + (10 > PoC(BRaf)/PoC(MKK4) ≥ 3) | 1000 to 10000 nM | 500 to 1000 nM | +++ (PoC(MKK7)/PoC(MKK4) ≥ 30) | ++ (1 ≤ PoC < 10) | CCCS(=O)(=O)Nc1ccc(F)c(C(=O)c2n[nH]c3ncc(-c4cccc(O)c4)cc23)c1F [Example 37, N-(2,4-difluoro-3-(5-(3-hydroxyphenyl)-1H-pyrazo-lo[3,4-b]pyridine-3-carbonyl)phenyl)propane-1-sulfon-amide]
5 | ++ (30 > PoC(JNK1)/PoC(MKK4) ≥ 10) | 500 to 1000 nM | +++ (PoC(BRaf)/PoC(MKK4) ≥ 30) | > 10000 nM | 1000 to 10000 nM | +++ (PoC(MKK7)/PoC(MKK4) ≥ 30) | ++ (1 ≤ PoC < 10) | CCCS(=O)(=O)Nc1ccc(F)c(C(=O)c2n[nH]c3ncc(-c4ccccc4OC)cc23)c1F [Example 14, N-(2,4-difluoro-3-(5-(2-methoxyphenyl)-1H-pyrazo-lo[3,4-b]pyridine-3-carbonyl)-phenyl)propane-1-sulfon-amide]
6 | +++ (PoC(JNK1)/PoC(MKK4) ≥ 30) | 500 to 1000 nM | ++ (30 > PoC(BRaf)/PoC(MKK4) ≥ 10) | > 10000 nM | 1000 to 10000 nM | +++ (PoC(MKK7)/PoC(MKK4) ≥ 30) | ++ (1 ≤ PoC < 10) | CCCS(=O)(=O)Nc1ccc(F)c(C(=O)c2n[nH]c3ncc(-c4ccc(F)cc4)cc23)c1F [Example 25, N-(2,4-difluoro-3-(5-(4-fluorophenyl)-1H-pyrazo-lo[3,4-b]pyridine-3-carbonyl)-phenyl)propane-1-sulfon-amide]

Row | Compound | Selectivity vs. JNK1, ratio PoC(JNK1)/PoC(MKK4) (JNK1) | IC50 (MKK4 active) | Selectivity vs. BRaf, ratio PoC(BRaf)/PoC(MKK4) (BRaf) | IC50 (MEKK2) | IC50 (MKK4-MEKK2 mix) | Selectivity vs. MKK7, ratio PoC(MKK7)/PoC(MKK4) (MKK7) | MKK4, residual percent of control binding (PoC) (MKK4)
7 | CCCS(=O)(=O)Nc1ccc(F)c(C(=O)c2n[nH]c3ncc(-c4ccc(C(=O)NCC(O)CO)cc4)cc23)c1F (centres unmarked) [Example 51l, 4-(3-(2,6-difluoro-3-(propylsulfonamido)benzoyl)-1H-pyrazolo[3,4-b]pyridin-5-yl)-N-(2,3-dihydroxypropyl)benzamide] | +++ (PoC(JNK1)/PoC(MKK4) ≥ 30) | 500 to 1000 nM | O (PoC(BRaf)/PoC(MKK4) < 3) | 1000 to 10000 nM | 1000 to 10000 nM | +++ (PoC(MKK7)/PoC(MKK4) ≥ 30) | +++ (PoC < 1)
8 | CCCS(=O)(=O)Nc1ccc(F)c(C(=O)c2n[nH]c3ncc(-c4ccc(S(=O)(=O)NC(C)=O)cc4)cc23)c1F [Example 51k, N-((4-(3-(2,6-difluoro-3-(propylsulfonamido)benzoyl)-1H-pyrazolo[3,4-b]pyridin-5-yl)phenyl)sulfonyl)acetamide] | +++ (PoC(JNK1)/PoC(MKK4) ≥ 30) | < 500 nM | O (PoC(BRaf)/PoC(MKK4) < 3) | > 10000 nM | < 500 nM | +++ (PoC(MKK7)/PoC(MKK4) ≥ 30) | +++ (PoC < 1)
